The text below walks through data of PubChem BioAssay (NCI).

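Where inhibition never reached the appropriate level, the endpoint shown equals the highest concentration tested. Otherwise, values were interpolated linearly from a five-concentration, 48-hour dose response in 96-well plates. At the TGI there is no net growth.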

Some test systems named below: LOX IMVI melanoma; NCI-H226 lung; M14 melanoma; SNB-19 CNS; NCI-H460 lung; OVCAR-5 ovarian; UO-31 renal; CCRF-CEM leukemia.
What all share (test): NCI-60 cell line screen, 48 h

In the case of `NC(=O)c1csc(CCCCCCc2nc(C(N)=O)cs2)n1`, the TGI in the test with LOX IMVI melanoma, in the test on NCI-H226 lung, in the test with M14 melanoma, in the test on SNB-19 CNS, with NCI-H460 lung and in the test on OVCAR-5 ovarian was more than 100 µM throughout. Also, the TGI with UO-31 renal was more than 100 µM; in the test on CCRF-CEM leukemia it was more than 62.4 µM.
For `CC(=O)c1c(O)ccc2c1CC(CC=O)O2` (stereo not given), the TGI in the test with LOX IMVI melanoma was 60.9 µM; in the test on NCI-H226 lung it was more than 100 µM; with M14 melanoma, more than 100 µM; in the test on SNB-19 CNS it was more than 100 µM; in the test with NCI-H460 lung, more than 100 µM; in the test on OVCAR-5 ovarian, more than 100 µM. The TGI in the test on UO-31 renal and in the test on CCRF-CEM leukemia was more than 100 µM in each case.
Regarding `O=C(O)c1cc(-c2ccccc2O)nc2ccccc12`, the TGI with M14 melanoma, in the test with SNB-19 CNS, in the test on NCI-H460 lung, in the test on OVCAR-5 ovarian, in the test on UO-31 renal and in the test on CCRF-CEM leukemia was more than 100 µM in each case.
As to `COC(=O)[C@H]1C=C[C@@H](C)n2c(=O)c3ccccc3c(=O)n21`, the TGI in the test with LOX IMVI melanoma, with NCI-H226 lung, with M14 melanoma, in the test with SNB-19 CNS, in the test with NCI-H460 lung and with OVCAR-5 ovarian was more than 100 µM each time. Besides, the TGI in the test with UO-31 renal and with CCRF-CEM leukemia was more than 100 µM throughout.
Regarding `O=C1C(Cl)C(c2ccc(Cl)cc2)N1n1cnc2ccccc2c1=O` (stereo not given), the TGI with LOX IMVI melanoma, in the test with NCI-H226 lung, with M14 melanoma, in the test with SNB-19 CNS, in the test on NCI-H460 lung and with OVCAR-5 ovarian was more than 100 µM throughout. The TGI with UO-31 renal and with CCRF-CEM leukemia was more than 100 µM throughout.
Turning to `CN(C)CCCSc1c2ccccc2nc2cc(NCC(=O)Nc3ccccc3-c3ccccc3NC(=O)CNc3ccc4c(SCCCN(C)C)c5ccccc5nc4c3)ccc12`, the TGI with LOX IMVI melanoma, in the test on NCI-H226 lung, in the test with M14 melanoma, in the test with SNB-19 CNS, in the test on NCI-H460 lung and with OVCAR-5 ovarian was more than 100 µM in each case. The TGI in the test on UO-31 renal was more than 100 µM; in the test on CCRF-CEM leukemia it was 92.7 µM.
Take `CCOC(=O)c1nc2ccc(Cl)cc2c2c1CCO2`: the TGI with LOX IMVI melanoma, in the test with NCI-H226 lung, with M14 melanoma, with SNB-19 CNS, in the test on NCI-H460 lung and in the test with OVCAR-5 ovarian was more than 100 µM in each case. In addition, the TGI in the test on CCRF-CEM leukemia is more than 100 µM.
For the compound `COc1ccc(C2CCC(Cl)(OC)CC2C=O)cc1` (stereo not given), the TGI is 43.7 µM in the test on LOX IMVI melanoma; more than 100 µM in the test on NCI-H226 lung; more than 100 µM in the test on M14 melanoma; more than 100 µM in the test on SNB-19 CNS; more than 100 µM in the test with NCI-H460 lung; more than 100 µM with OVCAR-5 ovarian. The TGI with UO-31 renal and with CCRF-CEM leukemia was more than 100 µM in each case.
Take `NC12CC3CC(C1)CC(Cl)(C3)C2`: the TGI in the test with LOX IMVI melanoma, in the test with M14 melanoma, with NCI-H460 lung, with OVCAR-5 ovarian, in the test with UO-31 renal and in the test with CCRF-CEM leukemia was more than 100 µM in each case.
Consider `Cc1nccc2c1cnc1ccnn12`, for which the TGI in the test on LOX IMVI melanoma, with NCI-H226 lung, in the test on M14 melanoma, with SNB-19 CNS, in the test with NCI-H460 lung and in the test on OVCAR-5 ovarian was more than 100 µM in each case. Besides, the TGI in the test on UO-31 renal and in the test on CCRF-CEM leukemia was more than 100 µM in each case.
For `CCOC(OCC)c1ccc(/C=C/c2cc(OC)c(OC)c(OC)c2)cc1`, the TGI was 25 µM in the test with LOX IMVI melanoma; 62.5 µM with NCI-H226 lung; 31.9 µM in the test with M14 melanoma; more than 100 µM with SNB-19 CNS; 38.1 µM with NCI-H460 lung; 55.7 µM in the test on OVCAR-5 ovarian. Besides, the values for the TGI in the test with UO-31 renal and with CCRF-CEM leukemia were 45.7 µM and 37.3 µM, respectively.
As for `COc1ccc(-c2onc(-c3c(C)cc(C)cc3C)c2C2=NCCCN2)cc1`, the TGI with LOX IMVI melanoma was more than 100 µM; with NCI-H226 lung, more than 100 µM; with M14 melanoma, 40.8 µM; with SNB-19 CNS, more than 100 µM; in the test with NCI-H460 lung, more than 100 µM; in the test on OVCAR-5 ovarian, more than 100 µM. For the same compound, the TGI with UO-31 renal and in the test on CCRF-CEM leukemia was more than 100 µM in each case.
On to `CC(=O)OC1OC2C(NC(=O)OC(C)(C)C)C1CC2(OCc1ccccc1)OCc1ccccc1` (stereo not given), for which the TGI in the test on NCI-H226 lung is 56.5 µM; in the test on M14 melanoma, 50.6 µM; in the test on SNB-19 CNS it was more than 100 µM; with NCI-H460 lung it was more than 100 µM; in the test with OVCAR-5 ovarian, 82.4 µM; with UO-31 renal, 30.3 µM. The compound also displayed a TGI in the test on CCRF-CEM leukemia of 82.9 µM.
As for `COc1ccc(/C=C2\N=C(c3ccccc3)N(Nc3nnc(NN4C(=O)/C(=C/c5ccc(OC)cc5)N=C4c4ccccc4)c4ccccc34)C2=O)cc1`, the TGI with LOX IMVI melanoma was 43 µM; in the test on NCI-H226 lung, more than 100 µM; in the test on M14 melanoma, more than 100 µM; in the test with SNB-19 CNS it was more than 100 µM; with NCI-H460 lung it was more than 100 µM; in the test on OVCAR-5 ovarian it was more than 100 µM. The compound further showed a TGI with CCRF-CEM leukemia of more than 100 µM.
